Measured values taken from ChEMBL document CHEMBL5728800, “JAK inhibitors” (2021).

How the values were obtained:
[1] = biological target: Non-receptor tyrosine-protein kinase TYK2 (Homo sapiens, UniProt P29597); assay: (§1) JAK/TYK2 Assay: 10 mM test compound stock or 1 mM control compound stock (tofocitinib, ruxolitinib or staurosporine) in DMSO was diluted to 0.4 mM in DMSO. A 3-fold series dilution was then performed in DMSO to generate 10 different compound concentrations. The assay was carried out in 384-well white plate. 0.5 uL of 40× compound DMSO solution at different concentrations was mixed with 10 uL 2× enzyme prepared in reaction buffer (20 mM HEPES, 10 mM MgCl2, 0.01% Tween, 1 mM DTT, pH 7.5). 10 uL 2× substrate mixture prepared in reaction buffer was then added to start the reaction. A short spin was done to settle down all solutions to the bottom of the plate. Final concentrations of test compound in the reaction mixture were 10000, 3333, 1111, 370, 123, 41.2, 13.7, 4.57, 1.52and 0.51 nM. Concentrations of control compound were ten times less. Enzymatic reaction was conducted at 25° C. for 1-2 hours. 10 uL of Kinase Glo Reagents was added to stop the reaction and generate the luminescent signal which was measured using Envision. Luminescence signal was inversely related to kinase activity. […] The mixture without any compound was the positive control.
Sequence of Non-receptor tyrosine-protein kinase TYK2 (P29597 whole entry): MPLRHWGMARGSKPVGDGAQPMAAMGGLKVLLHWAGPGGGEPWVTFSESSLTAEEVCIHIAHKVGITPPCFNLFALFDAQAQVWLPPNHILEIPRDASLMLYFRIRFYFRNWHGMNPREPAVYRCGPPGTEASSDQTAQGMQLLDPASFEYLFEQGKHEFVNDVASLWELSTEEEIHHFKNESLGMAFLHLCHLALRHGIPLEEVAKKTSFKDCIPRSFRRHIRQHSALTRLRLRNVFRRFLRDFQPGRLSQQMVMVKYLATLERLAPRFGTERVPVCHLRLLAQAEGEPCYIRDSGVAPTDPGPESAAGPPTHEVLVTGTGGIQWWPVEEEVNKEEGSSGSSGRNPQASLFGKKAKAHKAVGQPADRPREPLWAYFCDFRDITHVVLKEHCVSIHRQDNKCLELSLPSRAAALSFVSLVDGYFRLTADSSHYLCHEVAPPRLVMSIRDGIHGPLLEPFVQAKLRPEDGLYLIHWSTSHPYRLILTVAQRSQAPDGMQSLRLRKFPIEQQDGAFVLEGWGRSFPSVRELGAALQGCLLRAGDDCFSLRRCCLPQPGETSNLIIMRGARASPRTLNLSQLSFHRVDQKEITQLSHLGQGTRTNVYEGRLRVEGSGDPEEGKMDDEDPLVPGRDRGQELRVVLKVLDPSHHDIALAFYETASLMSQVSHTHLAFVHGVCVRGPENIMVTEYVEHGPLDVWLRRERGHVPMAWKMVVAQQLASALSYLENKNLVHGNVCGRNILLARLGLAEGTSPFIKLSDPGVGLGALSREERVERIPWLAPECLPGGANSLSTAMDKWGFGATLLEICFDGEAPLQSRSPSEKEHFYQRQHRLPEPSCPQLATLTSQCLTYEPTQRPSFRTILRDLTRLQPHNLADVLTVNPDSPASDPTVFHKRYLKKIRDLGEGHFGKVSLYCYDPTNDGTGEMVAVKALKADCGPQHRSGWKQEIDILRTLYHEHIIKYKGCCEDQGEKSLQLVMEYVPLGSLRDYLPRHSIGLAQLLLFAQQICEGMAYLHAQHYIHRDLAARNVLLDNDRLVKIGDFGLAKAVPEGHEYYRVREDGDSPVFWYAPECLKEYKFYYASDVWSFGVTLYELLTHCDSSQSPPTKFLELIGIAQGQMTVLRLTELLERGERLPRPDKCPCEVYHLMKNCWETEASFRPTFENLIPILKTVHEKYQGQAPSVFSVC

[2] = biological target: Tyrosine-protein kinase JAK1 (Homo sapiens, UniProt P23458); assay: as §1
Sequence of Tyrosine-protein kinase JAK1 (P23458 whole entry): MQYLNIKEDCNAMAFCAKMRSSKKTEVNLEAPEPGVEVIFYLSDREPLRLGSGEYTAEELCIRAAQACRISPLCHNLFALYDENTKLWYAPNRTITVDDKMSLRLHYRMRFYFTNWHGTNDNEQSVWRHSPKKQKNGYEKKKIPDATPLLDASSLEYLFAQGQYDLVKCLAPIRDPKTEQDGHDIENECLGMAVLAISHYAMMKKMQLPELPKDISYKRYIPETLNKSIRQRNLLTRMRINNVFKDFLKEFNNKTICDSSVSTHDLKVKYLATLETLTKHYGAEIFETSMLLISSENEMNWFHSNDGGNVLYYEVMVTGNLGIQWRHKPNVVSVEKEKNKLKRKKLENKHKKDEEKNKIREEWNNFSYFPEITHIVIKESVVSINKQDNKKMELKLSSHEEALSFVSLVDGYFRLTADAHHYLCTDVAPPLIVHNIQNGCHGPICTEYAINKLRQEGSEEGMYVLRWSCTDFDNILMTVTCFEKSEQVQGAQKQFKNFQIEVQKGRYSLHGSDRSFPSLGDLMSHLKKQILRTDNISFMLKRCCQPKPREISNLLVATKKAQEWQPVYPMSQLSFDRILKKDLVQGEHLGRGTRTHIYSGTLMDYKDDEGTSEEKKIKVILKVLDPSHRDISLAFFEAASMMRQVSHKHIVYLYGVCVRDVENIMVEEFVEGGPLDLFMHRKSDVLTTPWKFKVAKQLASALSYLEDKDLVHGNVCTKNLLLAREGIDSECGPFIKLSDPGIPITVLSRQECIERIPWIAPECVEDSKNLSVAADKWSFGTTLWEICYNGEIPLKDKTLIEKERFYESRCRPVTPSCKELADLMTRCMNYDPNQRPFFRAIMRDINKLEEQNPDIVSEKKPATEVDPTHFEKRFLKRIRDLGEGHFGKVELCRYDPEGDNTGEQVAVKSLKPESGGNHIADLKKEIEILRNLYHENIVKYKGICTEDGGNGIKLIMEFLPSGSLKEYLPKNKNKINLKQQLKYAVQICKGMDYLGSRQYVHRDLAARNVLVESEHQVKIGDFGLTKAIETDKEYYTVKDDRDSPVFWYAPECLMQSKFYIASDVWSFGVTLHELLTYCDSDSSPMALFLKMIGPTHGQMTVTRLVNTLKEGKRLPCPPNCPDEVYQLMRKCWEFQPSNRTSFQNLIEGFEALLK

[3] = biological target: T1, Tyrosine-protein kinase JAK3 (Homo sapiens, UniProt P52333); assay: as §1
T1 sequence (P52333 whole entry): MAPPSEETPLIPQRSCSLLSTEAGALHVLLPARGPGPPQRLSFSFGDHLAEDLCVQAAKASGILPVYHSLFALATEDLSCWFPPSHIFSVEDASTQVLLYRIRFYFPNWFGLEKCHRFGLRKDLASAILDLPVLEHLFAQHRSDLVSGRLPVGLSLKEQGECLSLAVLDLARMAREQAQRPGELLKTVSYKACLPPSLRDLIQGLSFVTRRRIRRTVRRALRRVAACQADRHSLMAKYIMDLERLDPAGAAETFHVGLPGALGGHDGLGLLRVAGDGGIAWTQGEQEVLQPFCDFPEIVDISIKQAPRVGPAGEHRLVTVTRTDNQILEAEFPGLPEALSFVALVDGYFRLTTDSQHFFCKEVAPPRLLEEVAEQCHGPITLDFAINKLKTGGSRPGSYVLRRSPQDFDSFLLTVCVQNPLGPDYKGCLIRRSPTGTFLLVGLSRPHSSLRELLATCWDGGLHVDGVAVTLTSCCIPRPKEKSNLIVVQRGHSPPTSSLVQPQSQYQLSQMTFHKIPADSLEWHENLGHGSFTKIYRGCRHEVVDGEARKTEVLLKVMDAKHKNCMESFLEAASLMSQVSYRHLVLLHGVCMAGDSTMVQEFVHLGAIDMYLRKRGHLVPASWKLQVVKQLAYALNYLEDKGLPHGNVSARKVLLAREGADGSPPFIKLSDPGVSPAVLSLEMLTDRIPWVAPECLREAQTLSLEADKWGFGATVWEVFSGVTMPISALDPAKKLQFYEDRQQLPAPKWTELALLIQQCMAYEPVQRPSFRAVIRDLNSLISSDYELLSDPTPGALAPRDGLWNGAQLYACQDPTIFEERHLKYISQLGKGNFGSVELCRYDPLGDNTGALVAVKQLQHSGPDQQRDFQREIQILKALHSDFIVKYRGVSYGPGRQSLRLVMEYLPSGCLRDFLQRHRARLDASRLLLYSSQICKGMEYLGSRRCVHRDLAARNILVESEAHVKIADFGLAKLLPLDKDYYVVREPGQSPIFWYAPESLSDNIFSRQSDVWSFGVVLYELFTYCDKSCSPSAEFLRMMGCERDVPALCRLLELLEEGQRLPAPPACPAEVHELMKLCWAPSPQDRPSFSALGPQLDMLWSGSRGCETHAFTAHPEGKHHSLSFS

[4] = biological target: Tyrosine-protein kinase JAK2 (Homo sapiens, UniProt O60674); assay: as §1, with “Final concentrations of test compound in the reaction mixture were 10000, 3333, 1111, 370, 123, 41.2, 13.7, 4.57, 1.52and 0.51 nM.” left out
Sequence of Tyrosine-protein kinase JAK2 (O60674 whole entry): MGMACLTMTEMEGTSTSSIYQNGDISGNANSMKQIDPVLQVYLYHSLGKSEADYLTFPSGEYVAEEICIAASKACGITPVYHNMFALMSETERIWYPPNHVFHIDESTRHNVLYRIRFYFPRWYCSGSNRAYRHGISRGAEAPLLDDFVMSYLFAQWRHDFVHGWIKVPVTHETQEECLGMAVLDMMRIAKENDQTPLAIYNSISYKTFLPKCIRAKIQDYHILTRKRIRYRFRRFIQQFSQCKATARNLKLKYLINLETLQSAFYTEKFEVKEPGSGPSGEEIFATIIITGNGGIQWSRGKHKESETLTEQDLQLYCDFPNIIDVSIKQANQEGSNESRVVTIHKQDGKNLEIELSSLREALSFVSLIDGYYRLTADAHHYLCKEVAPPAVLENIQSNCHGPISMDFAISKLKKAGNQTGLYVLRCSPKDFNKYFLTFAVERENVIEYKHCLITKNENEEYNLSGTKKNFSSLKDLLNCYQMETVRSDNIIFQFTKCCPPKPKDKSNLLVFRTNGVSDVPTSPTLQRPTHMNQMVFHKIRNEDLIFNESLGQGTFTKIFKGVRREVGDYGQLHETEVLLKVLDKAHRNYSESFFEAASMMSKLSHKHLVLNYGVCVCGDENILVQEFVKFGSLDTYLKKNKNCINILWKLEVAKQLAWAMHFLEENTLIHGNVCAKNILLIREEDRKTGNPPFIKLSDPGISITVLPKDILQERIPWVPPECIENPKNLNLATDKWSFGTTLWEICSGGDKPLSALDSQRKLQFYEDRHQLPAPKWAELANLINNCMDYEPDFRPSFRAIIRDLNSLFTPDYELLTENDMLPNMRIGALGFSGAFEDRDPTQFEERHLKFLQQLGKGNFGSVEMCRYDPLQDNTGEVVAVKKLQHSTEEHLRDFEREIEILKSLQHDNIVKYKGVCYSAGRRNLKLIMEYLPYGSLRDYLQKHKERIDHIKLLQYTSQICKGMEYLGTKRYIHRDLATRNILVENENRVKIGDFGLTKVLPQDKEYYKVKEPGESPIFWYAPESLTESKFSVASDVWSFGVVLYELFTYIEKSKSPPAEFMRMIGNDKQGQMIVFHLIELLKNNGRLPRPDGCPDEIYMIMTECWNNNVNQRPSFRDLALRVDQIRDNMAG

| IC50 [1] | IC50 [2] | IC50 [3] | IC50 [4] | SMILES |
| --- | --- | --- | --- | --- |
| < 0.1 µM | < 0.1 µM | < 0.1 µM | < 0.1 µM | CC[C@H](Cn1ccc2cnc(Nc3cnn([C@@H](CCO)C(=O)O)c3)nc21)C(C)C |
| < 0.1 µM | < 0.1 µM | < 0.1 µM | < 0.1 µM | CCC(CC)Cn1ccc2cnc(Nc3cnn(CC(=O)OCC4OC(O)CC(O)C4O)c3)nc21 (stereo not drawn) |
